Test results taken from paper PMC5122887, “Identification of ER-000444793, a Cyclophilin D-independent inhibitor of mitochondrial permeability transition, using a high-throughput screen in cryopreserved mitochondria” (Scientific Reports, 2016).

Molecular target: T1, Cyclophilin D (CypD; rhCypD) (Homo sapiens, UniProt P30405)
T1 construct: gene PPIF; amino acids 44 to 207 of full length human CypD, C-terminal His-tag
Test: HTRF/TR-FRET displacement of CsA-d2 from His-tagged rhCypD; also inhibits PPIase activity (IC50 […])
Assay type: binding

T1 sequence (P30405 44-207): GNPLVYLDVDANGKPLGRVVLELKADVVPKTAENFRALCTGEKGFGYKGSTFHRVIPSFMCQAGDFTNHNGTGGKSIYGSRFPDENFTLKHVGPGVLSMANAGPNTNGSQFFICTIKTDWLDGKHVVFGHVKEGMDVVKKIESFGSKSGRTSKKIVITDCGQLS

`CC[C@H]1C[C@H](C)[C@@]2(NC1=O)O[C@@H](C[C@H](O)[C@@H](C)CC/C=C/C=C(\C)[C@@H]1C/C=C/C=C/[C@H](O)[C@H](C)[C@@H](O)[C@@H](CCC(C)=O)C(=O)N[C@@H](C(C)C)C(=O)N[C@@H](Cc3cccc(O)c3)C(=O)N3CCC[C@H](N3)C(=O)O1)[C@H](C)[C@H](O)[C@@H]2C` [SfA, sanglifehrin A] was tested, and the IC50 was 5 nM.
